One data set concerns acquired arm lymphedema. The data set is described as follows: Pilot clinical study in breast cancer patients with acquired arm lymphedema. It counts as in vivo, human. Conditions: oral 200 mg daily, up to 8 weeks, ten patients. From the text: To further evaluate in a clinical setting the anti-lymphedema activity of multi-kinase inhibitor sorafenib, the Applicants performed a pilot study on a compassionate need basis to evaluate the toxicity and the anti-lymphedema effects of multi-kinase inhibitor sorafenib in consenting breast cancer patients with acquired arm lymphedema occurring following surgical dissection of, and/or radiotherapy on axillary lymphnodes. No other treatment options of proven efficacy was available for these patients.
Patients were administered with oral sorafenib at a dose of 200 mg daily.
Therapy was given for a maximum of 8 weeks or until lymphedema progression or appearance of clinical significant toxicity probably related to multi-kinase inhibitor sorafenib.
Within a two-month period of time ten breast cancer patients with acquired lymphedema of the arm were treated with multi-kinase inhibitor sorafenib.
At the end of treatment, the efficacy of multi-kinase inhibitor sorafenib was evaluated as percentage reduction of total arm circumference as compared with pre-treatment values. The median reduction of total arm circumference was 60% (range, 30 to 100). Lymphedema reduction was associated with a 5-10% reduction of body weight.

In data set [1] the test system is vascular permeability in mouse tail. The data set is described as follows: Miles vascular permeability assay (Evans blue) in mice with surgically induced tail lymphedema. The class given is in vivo. The protocol: A Miles vascular permeability assay using intrasplenic injection of the blue dye Evans blue was perfomed in untreated and sorafenib-treated mice bearing a surgical-induced tail lymphedema.
Six- to eight-wk-old female C57BL/6 mice with body weight of 20 to 25 g, were used in this experiment. Tail lymphedema was generated by a circumferential incision through the dermis close to the tail base, as described above. […] On day 16, mice received the last dose of sorafenib and 2 hrs later were injected through the spleen with 0.1 ml of 1% Evan's blue in PBS. After 2 h, the mice were exsanguinated under anesthesia, and were perfused with heparin in PBS until lungs and livers were blanched. The distal portion of the tail was then removed and placed in formamide at 37° C. overnight to extract Evan's blue dye. […]

The test system of data set [2] is severe bilateral leg lymphedema. Description: Observation of leg lymphedema in a Hodgkin lymphoma patient in a phase II clinical trial. The class given is in vivo, human. Conditions: one Hodgkin lymphoma patient, 800 mg/die, lymphedema from post-radiotherapy compressive lymphatic obstruction. From the text:
In this patient, lymphedema was due a compressive lymphatic obstruction related to post-radiotherapy sequelae.

Data set [3] has as its system tail lymphedema in C57BL/6 mice. The data set is described as follows: Mouse tail model of lymphedema. The class given is in vivo. Conditions: 60 mg/kg/die days 5 to 9 and 12 to 16. The protocol:
Six- to eight-wk-old female C57BL/6 mice with body weight of 20 to 25 g, were purchased from Charles River (Milano, Italy, EU). Mice were housed under standard laboratory conditions according to the Applicant's institutional guidelines. Animal experiments were performed according to the Italian laws (Law Decree 116/92 and following additions), which enforce the EU […] Directive, and were approved by the institutional Ethical Committee for Animal Experimentation.
To create lymphedema, a circumferential incision was made through the dermis close to the tail base to sever the dermal lymphatic vessels. The edges of this incision were then pushed apart, thereby severing the deeper draining lymphatics, preventing superficial bleeding, and creating a 2-3 mm gap to delay wound closure.
Sorafenib dosing used in mice experiments is roughly equivalent to a 300 mg daily dosing in humans.
Mice were than randomly assigned to receive two cycles of sorafenib (60 mg/kg/die) from days 5 to 9 and 12 to 16 or control vehicle.

SMILES strings stand for the structures.

For the compound `CNC(=O)c1cc(Oc2ccc(NC(=O)Nc3ccc(Cl)c(C(F)(F)F)c3)cc2)ccn1` [sorafenib, Sorafenib], in the data set with acquired arm lymphedema (end of treatment), the “median reduction of total arm circumference vs pre-treatment” value turned out to be 60%. Moreover, the “reduction of body weight associated with lymphedema reduction” value in the data set with acquired arm lymphedema is reported as 5-10%. In addition, the tolerability result in the data set on acquired arm lymphedema (no dose reduction or discontinuation due to toxicity) was “well tolerated”. In addition, the “mean (±SEM) OD620 of Evans blue extracted from the tail” value in data set [1] (60 mg/kg, 384 h) amounted to 0.09±0.009. Moreover, the “reduction of vascular permeability vs untreated mice (extravasated Evans blue)” value in data set [1] (day 16, 60 mg/kg/die days 5 to 9 and 12 to 16) is 2 fold. The “regression of severe bilateral leg lymphedema” value in data set [2] is “complete regression”. Moreover, the “mean (±SEM) tail diameter at lymphedema peak” value in data set [3] (day 7 after incision, control peak 63±3 mm on day 15) came to 58±4 mm. Moreover, the “resolution of tail lymphedema” value in data set [3] (day 20) was “complete resolution of lymphedema”. Further, in data set [3] (day 20 after incision, control 58±3, P≦0.0003, baseline 36±1), the “mean (±SEM) tail diameter on day 20” value was found to be 36±1 mm.

The values are drawn from patent US20120101261A1, “USE OF MULTI-KINASE INHIBITORS IN THE TREATMENT OF VASCULAR HYPERPERMEABILITY” (Fondazione IRCCS Istituto Nazionale Dei Tumori, priority 2009, published 2012).
